# Reference: patent US10106519B2, “3-phenyl-7-hydroxy-isocoumarins as macrophage migration inhibitory factor (MIF) inhibitors” (The Provost, Fellows, Foundation Scholars, & the Other …, priority 2014, dated 2018)
# Entries after “also recorded” stand apart in the source; their conditions may differ.
# Columns and labels:
# [1] = tested on: circulating levels of TNF-α; conditions: LPS induced model of murine sepsis; cited from earlier work
# prostate cancer cells = conditions: cited from earlier work
# [2] = tested on: LPS mediated PGE-2 production; experiment: PGE-2 production in LPS treated RAW macrophage cells (ELISA); format: cell-based, murine; conditions: 100 μM inhibitor, 100 ng/ml LPS (FIG. 4)
# Description: Raw macrophage murine cells were plated at a cell density of 1×10^5 and pre-treated with 100 μM of each of the inhibitors […] for 30 minutes at 37° C. in a humidified 5% CO2 incubator. Raw macrophage cells were then treated with 100 ng/ml of LPS and supernatants were collected after 16 hours at 37° C. in a humidified 5% CO2 incubator and analysed for PGE-2 production. Levels of PGE-2 were measured by ELISA. (CAT # KGE004 R&D Syst).
# [3] = tested on: Lewis Lung carcinoma cells (LLC); experiment: LLC-GLuc proliferation assay with rMIF; format: cell-based, mouse; conditions: 100 μM inhibitor, 100 ng/ml rMIF, 48 hours (FIG. 5)
# Description: LLC-GLuc cells were plated in a 6 well plate at a density of 5×10^4 cells/ml in DMEM supplemented with P/S, 10% FCS and L-Glu. After overnight adherence, 100 ng/ml MIF was added along with the inhibitors or DMSO to a total of 1 ml serum free medium. Cells were harvested after 48 hours by trypsinisation and counted in a haemocytometer.
# The ability of candidate compounds to reduce cellular proliferation was also examined. For this assay, LLC cells were plated at a cell density of 5×10^4 cells/ml. The cells were then pre-treated with TI 19 or ISO-1 at a concentration of 100 μM. The cells were then treated with 100 ng/ml of recombinant MIF. The cells were incubated at 37° C. in a humidified 5% CO2 incubator and after 48 hours the cells were harvested and counted.
# PGE-2 = conditions: increasing concentrations; cited from earlier work
# [4] = tested on: Lewis Lung carcinoma cells; experiment: Subcutaneous LLC1 tumour model with in vivo tautomerase inhibitor treatment; design: species or system C57BL/6 mice; conditions: 35 mg/kg intraperitoneally 30 min prior to inoculation and twice weekly, day 28 (FIG. 8)
# Description: Log phase cultures of LLC-1 cells were harvested by trypsinisation and washed three times with sterile phosphate buffered saline (PBS) and resuspended at a cell density of 5×10^5/ml in PBS. Animals were shaved with an electric shaver 24 hours before subcutaneous injection. 5×10^5 Lewis Lung cells were injected subcutaneously into the left flank of C57BL/6 mice of 6-8 weeks. Animals were monitored for the duration of the experiment and tumour measurements were recorded twice weekly with a digital callipers. Tumour volume (mm^3) was calculated as 0.5×L×W^2, where length is representative of the larger tumour diameter and the width represents the smaller tumour diameter. Animals are sacrificed when tumours reach a diameter of 15 mm or if tumours become ulcerated. Tumours are then removed along with the lungs, spleen and liver.
# 30 minutes prior to LLC-1 inoculation, inhibitors (TI 19/ISO-1) were administered at a concentration of 35 mg/kg in a volume of 100 μl 5% DMSO in sterile PBS. Control groups were given injections of vehicle 5% DMSO in sterile PBS or sterile PBS alone. Animals were treated twice weekly for four weeks.
# In order to assess the antitumour activity of the novel tautomerase inhibitors in vivo, a subcutaneous LLC-1 cell model was set up. The subcutaneous model was chosen so that tumours could be easily visualised and measured during the course of the experiment and to allow assessment of the growth of the tumour in real time. Lewis Lung carcinoma cells (5×10^5) were injected sub-cutaneously into the left flank of C57BL/6 mice. Caliper measurements were taken twice weekly and tumour volume (mm^3) was calculated as 0.5×L×W^2. […] The cut off point for this model was when the tumour measured 15 mm in diameter. This model gave us an indication of normal tumour growth in this subcutaneous model. It can be seen from this model that from day 22 to day 28 the size of the tumour grows considerably.
# Once it was determined that the enzymatic activity played a role in the growth of tumours, the subcutaneous LLC model was then used to assess the efficiency of the small weight molecular inhibitors. C57/B16 mice were injected intraperitoneally with 35 mg/kg of each of the inhibitors 30 minutes prior to subcutaneous tumour inoculation and again twice weekly for 4 weeks. Animals were monitored daily and tumour measurements taken until the tumour measured 15 mm in diameter.
# [5] = tested on: LPS induced TNF-α production; conditions: RAW 264.7 cell line, previously shown; cited from earlier work
# [6] = tested on: LPS induced TNF-α production; experiment: Inhibition of LPS induced TNF-α production in RAW 264.7 macrophage cells (ELISA); format: cell-based, mouse
# Description: RAW 264.7 macrophage cells were plated at 1×10^5/ml in 450 μl of medium in a 48 well plate. 16 hours later cells were treated with ISO-1 or Tautomerase Inhibitors at a final concentration of 10, 50 or 100 μM for 30 minutes before stimulation with 100 ng/ml LPS. Supernatants were collected after 20 hours for determination of TNF-α levels. TNF-α levels were determined using a TNF-α specific ELISA (CAT # DY410 R&D Syst).
# 96 well plates were coated with 50 μl of Capture Antibody ([…]) in PBS and sealed and incubated overnight at 4° C. Plates were then washed three times in 0.05% PBS Tween and plates blotted. Plates were blocked by adding 150 μl of 1% BSA in PBS (Gibco—cat no. 14190-094) to each well and incubated at room temperature for 2 hours. Plates were washed again as previously described. 50 μl of sample or standard was added to each well and incubated for overnight at 4° C. Plates were then washed again as described. 50 μl of the detection Antibody (200 ng/ml) in 1% BSA in PBS was added to each well and incubated for 2 hours at room temperature. Plates were then washed again as described. 50 μl of working concentration of Streptavidin—HRP was added to each well and plates were covered and incubated for 20 minutes at room temperature. 50 μl of substrate solution (One OPD tablet and one urea hydrogen peroxide/buffer tablet were dissolved in 20 ml of water to yield a ready to use buffered solution, Sigma—cat no. 9187-50) was added to each well and incubated for 20 minutes at room temperature. 25 μl of 2N H2SO4 was added to each well to stop the reaction. The optical density of each well was then measured with a spectrophotometer at 450 nm.
# Initially the panel of 25 novel potential tautomerase inhibitors was screened in an in-vitro system. In order to do this we exploited the fact that MIF is needed for optimal LPS induced TNF-α production. We therefore reasoned that our potential TIs should be able to inhibit LPS induced TNF-α in RAW macrophage murine cells. RAW macrophage murine cells were plated at 37° C. in a humidified 5% CO2 incubator. 16 hours later the cells were pre-treated with each of the inhibitors at concentration of 100, 50 or 10 μM for 30 minutes 100 ng/ml of LPS was then added to the cells and supernatants were collected after 16 hours and analysed for TNF-α production by ELISA.
# MIF tautomerase = target: T1, MIF tautomerase (Homo sapiens, UniProt P14174); experiment: MIF tautomerase inhibition assay; format: biochemical; conditions: structure activity relationship studies (FIG. 10)
# T1 construct: host or cells: E. coli BL21
# T1 sequence (P14174 2-115 limits assumed): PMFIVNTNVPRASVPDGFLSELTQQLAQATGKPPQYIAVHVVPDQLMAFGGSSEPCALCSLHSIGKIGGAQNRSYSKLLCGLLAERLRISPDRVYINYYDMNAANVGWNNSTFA
# Description: Human recombinant MIF was purified as per Bernhagen et al. (Biochemistry, 1994. 33(47): p. 14144-55). Briefly, BL21 E. coli cells expressing the pET11b-MIF construct were grown to an absorbance at 600 nm (OD) of […]. Isopropyl 1-thio-P-D-galactopyranoside (IPTG) (Sigma—cat no. 16758) was added to a final concentration of 1 mM to induce expression of the MIF gene and incubated for another 3 hours. Bacteria were then harvested by centrifugation and the cell pellets were then frozen. Protein purification was then out sourced to Scottish Biomedical, where the bacterial pellets were thawed and resuspended in 3 ml of Tris-buffered saline. The bacteria were then lysed by adding an equivalent number of glass beads and vortexing strongly for 10 minutes. Glass beads were removed by centrifugation at 1000 g for 10 minutes and the bacterial extract was centrifuged at 1000 g for a further 30 minutes. The supernatant was then sterile-filtered through a […] membrane filter and put through a MONO Q anion exchange chromatography column. MIF was eluted using Tris-buffered saline in the first flow-through fractions and pooled and placed on ice. These pooled fractions were then applied to a C8-SepPak reverse phase column. Unbound material was eluted by washing with water and 20% acetonitrile/water. MIF was then eluted using 6 column volumes of 60% acetonitrile/water. This sample was then renatured by dissolving MIF at a concentration of […] in 20 mM sodium phosphate buffer containing 8M urea and 5 mM DTT and dialysed against 20 mM sodium phosphate buffer. […]
# L-dopachrome methyl ester was prepared at 2.4 mM through oxidation of L-3,4-dihydroxyphenylalanine methyl ester with sodium periodate. The solution was mixed well and placed at room temperature for 5 minutes before being placed on ice in the dark. 100 ng of rMIF was added to each of the Tautomerase Inhibitors or ISO-1 at a number of concentrations (1, 50 and 100 μM) with substrate. The decrease in absorbance was measured with a spectrophotometer at 475 nm every 10 seconds for 10 minutes.
# The rate of the reaction of rMIF and substrate alone was measured over time at 475 nm. This was compared to the rate of this reaction with the addition of 100 μM of each of the inhibitors. Inhibition was calculated as the percentage in the reduction of the rate of change with the addition of the inhibitor averaged over five minutes.
# [7] = comparative analysis, same assay
compound,measurement,setting,value
"COC(=O)CC1CC(c2ccc(O)cc2)=NO1 (stereo not shown) [ISO-1, reference compound]","circulating levels of TNF-α, in words",[1],reduce circulating levels of TNF-α
same,"cell proliferation, in words",prostate cancer cells,decreased cell proliferation in prostate cancer cells
same,"reduction of LPS mediated PGE-2 production, in words",[2],significantly reduces
same,"reduction of MIF induced proliferation, in words",[3],less so; also recorded: reduced the MIF induced proliferation
same,"production of PGE-2, in words",PGE-2,reduce the production of PGE-2 in a dose dependant manner
same,reduction in tumour growth / tumour size,[4],over 50%
same,"TNF-α production induced by LPS, in words",[5],inhibit TNF-α production induced by addition of LPS
same,reduction of TNF-α production,[6]; 100 μM inhibitor 30 minutes before 100 ng/ml LPS (FIG. 2A),20%
"Cc1ccccc1-c1cc2cc(O)c(O)cc2c(=O)o1 [SDG-54, 3-(2′-methylphenyl)-6,7-hydroxyisocoumarin]","inhibition of MIF tautomerase activity, analogues of TI 19",MIF tautomerase,86%
same,"tautomerase inhibitory activity of analogues, in words",MIF tautomerase,almost complete inhibition of MIF tautomerase activity
"Cc1cccc(-c2cc3ccc(O)cc3c(=O)o2)c1 [SDG-47, 3-(3′-methylphenyl)-7-hydroxyisocoumarin]","tautomerase inhibitory activity of analogues, in words",MIF tautomerase,almost complete inhibition of MIF tautomerase activity
Cc1cc2ccccc2c(=O)o1 [SDG-40],"tautomerase inhibitory activity of analogues, in words",MIF tautomerase,dramatic loss of inhibitory activity
"Cc1ccccc1-c1cc2ccc(O)cc2c(=O)o1 [SDG-22, 3-(2′-methylphenyl)-7-hydroxyisocoumarin]","inhibition of MIF tautomerase activity, analogues of TI 19",MIF tautomerase,> 90%
same,"tautomerase inhibitory activity of analogues, in words",MIF tautomerase,very effective inhibitor of MIF tautomerase; also recorded: most effective tautomerase inhibitor identified to date; also recorded: significantly more potent than TI 19
same,"reduction of TNF-α production, comparative analysis","[6]; LPS stimulated RAW macrophage murine cells, 100 μM (FIG. 11)",97%
same,more effective than ISO-1 in reducing TNF-α production,[6]; [7],80%
same,more effective than TI 19 in reducing TNF-α production,[6]; [7],10%
same,"reduction of TNF-α production, in words",[6]; concentration not given,significant reduction in TNF-α production
Cc1ccccc1-c1cc2ccccc2c(=O)[nH]1 [SDG-42],"tautomerase inhibitory activity of analogues, in words",MIF tautomerase,ineffective as a tautomerase inhibitor
COc1ccc2cc(-c3ccccc3C)oc(=O)c2c1 [SDG-23],"tautomerase inhibitory activity of analogues, in words",MIF tautomerase,did not significantly inhibit MIF tautomerase
"COc1cc2cc(-c3ccccc3C)oc(=O)c2cc1OC [SDG-53, 3-(2′-methylphenyl)-6,7-dimethoxyisocoumarin]","tautomerase inhibitory activity of analogues, in words",MIF tautomerase,did not significantly inhibit MIF tautomerase
"Cc1cc2cc(-c3ccccc3C)oc(=O)c2cc1O [SDG-52, 3-(2′-methylphenyl)-6-methyl-7-hydroxyisocoumarin]","tautomerase inhibitory activity of analogues, in words",MIF tautomerase,some inhibitory activity
O=c1oc(-c2ccccc2O)cc2ccccc12 [SDG-50],"tautomerase inhibitory activity of analogues, in words",MIF tautomerase,dramatic loss in tautomerase inhibition activity
O=c1oc(-c2ccccc2)cc2ccccc12 [SDG-46],"tautomerase inhibitory activity of analogues, in words",MIF tautomerase,inactivity
"COc1cc2c(=O)oc(-c3ccccc3C)cc2cc1C [SDG-51, 3-(2′-methylphenyl)-6-methyl-7-methoxyisocoumarin]","tautomerase inhibitory activity of analogues, in words",MIF tautomerase,did not significantly inhibit MIF tautomerase
